According to the NIST ThermoML archive (doi:10.1021/je050416y):

Assay: xn = mol fraction of the nth substance listed
Conditions: 101 kPa, Liquid; for mass density: Vibrating tube method

CC(C)CCO [3-methylbutan-1-ol] + CCO
Conditions	kinematic viscosity, 308.15 K [m2/s]	kinematic viscosity, 313.15 K [m2/s]	kinematic viscosity, 318.15 K [m2/s]	kinematic viscosity, 323.15 K [m2/s]	mass density, 313.15 K [kg/m3]	mass density, 318.15 K [kg/m3]	mass density, 323.15 K [kg/m3]
x1 = 0.0268	–	–	–	–	773.2	769	764.6
x1 = 0.0549	–	–	–	–	774.2	770	765.7
x1 = 0.0845	–	–	–	–	775.2	771	766.7
x1 = 0.0915	1.17e-06	1.07e-06	9.8e-07	8.72e-07	–	–	–
x1 = 0.1156	–	–	–	–	776.2	772	767.8
x1 = 0.1484	–	–	–	–	777.2	773.1	768.9
x1 = 0.1753	1.22e-06	1.12e-06	1.03e-06	9.13e-07	–	–	–
x1 = 0.183	–	–	–	–	778.2	774.1	769.9
x1 = 0.2524	1.27e-06	1.17e-06	1.07e-06	9.53e-07	–	–	–
x1 = 0.2584	–	–	–	–	780.3	776.3	772.1
x1 = 0.3235	1.33e-06	1.22e-06	1.12e-06	9.96e-07	–	–	–
x1 = 0.3433	–	–	–	–	782.4	778.4	774.3
x1 = 0.3894	1.4e-06	1.28e-06	1.17e-06	1.05e-06	–	–	–
x1 = 0.4395	–	–	–	–	784.6	780.6	776.6
x1 = 0.4505	1.47e-06	1.35e-06	1.23e-06	1.1e-06	–	–	–
x1 = 0.5495	–	–	–	–	786.7	782.8	778.9
x1 = 0.5605	1.65e-06	1.51e-06	1.37e-06	1.23e-06	–	–	–
x1 = 0.6567	1.86e-06	1.69e-06	1.54e-06	1.39e-06	–	–	–
x1 = 0.6765	–	–	–	–	788.9	785.1	781.2
x1 = 0.7416	2.1e-06	1.9e-06	1.72e-06	1.55e-06	–	–	–
x1 = 0.817	2.37e-06	2.13e-06	1.92e-06	1.72e-06	–	–	–
x1 = 0.8247	–	–	–	–	791	787.3	783.4
x1 = 0.8844	2.66e-06	2.38e-06	2.13e-06	1.9e-06	–	–	–
x1 = 0.9451	2.98e-06	2.66e-06	2.36e-06	2.09e-06	–	–	–
x1 = 1	3.33e-06	2.94e-06	2.59e-06	2.29e-06	793.2	789.5	785.7
